Source: patent publication US20060116390A1, “Hepatitis c virus inhibitors” (priority 2003, published 2006)
Read-outs that look alike come from different tables or passages of the source.

Tested on: HCV proteins in Rep5.1 cells (replicon cell line)
Assay: Inhibitory activity of HCV: cell-based ELISA in replicon cell line Rep5.1 (decrease of HCV proteins)
Set-up: species or system hepatitis C virus
Conditions: Rep5.1 cells, 72 hours with drug
How it was run: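 HCV protein loss was quantified by ELISA on methanol/acetone-fixed cells 72 h after drug addition, probing with selected HCV-positive human plasma, and IC50 was defined as 50% reduction relative to untreated wells. The cells were Rep5.1 replicon cells cultured in DMEM-10 with 500 μg/ml G418, plated at 5000 per well and dosed with serial dilutions after 4 h attachment.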

[1] = Hepatitis C virus, 72 h, concentration at which 50% of HCV proteins was decreased, Table 2, read-out: IC50
[2] = Hepatitis C virus, 72 h, decrease of HCV proteins measured by HCV antibody, Table 1, read-out: Level (IC50 values classified)
[3] = concentration at which 50% of HCV proteins was decreased, Table 2, read-out: IC50

Row | Compound | IC50 [1] | IC50 [2] | IC50 [3]
1 | CC1=C(C(=O)OCc2ccccc2)CNC(=S)N1 [Compound 6, 6-methyl-2-thioxo-1,2,3,4-tetrahydro-pyrimidine-5-carboxylic acid benzyl ester] | 1000 nM | < 1000 nM | 
2 | CC1=C(C(=O)OCCc2c(F)c(F)c(F)c(F)c2F)C(CF)NC(=S)N1 (stereo not drawn) [60′, 4-fluoromethyl-6-methyl-2-thioxo-1,2,3,4-tetrahydro-pyrimidine-5-carboxylic acid 2-pentafluorophenyl-ethyl ester] |  |  | 4000 nM
3 | O=C(OCCCc1cccs1)C1=CNC(=S)NC1CF (stereo not drawn) [16′, 4-fluoromethyl-2-thioxo-1,2,3,4-tetrahydro-pyrimidine-5-carboxylic acid 3-thiophen-2-yl-propyl ester] | 2000 nM | 1000 to 10000 nM | 
4 | CC1=C(C(=O)OC(C)CCc2cccs2)C(CF)NC(=S)N1 (stereo not drawn) [74′, 4-fluoromethyl-6-methyl-2-thioxo-1,2,3,4-tetrahydro-pyrimidine-5-carboxylic acid 1-methyl-3-thiophen-2-yl-propyl ester] | 7000 nM | 1000 to 10000 nM | 
5 | O=C(OCCc1ccsc1)C1=C(CO)NC(=S)NC1 [67′, 6-hydroxymethyl-2-thioxo-1,2,3,4-tetrahydro-pyrimidine-5-carboxylic acid 2-thiophen-3-yl-ethyl ester] | > 100000 nM | > 20000 nM | 
6 | CC1=C(C(=O)OCCCCc2ccsc2)C(CO)NC(=S)N1 (stereo not drawn) [25″, 4-hydroxymethyl-6-methyl-2-thioxo-1,2,3,4-tetrahydro-pyrimidine-5-carboxylic acid 4-thiophen-3-yl-butyl ester] | 2000 nM | 1000 to 10000 nM | 
7 | CC1=C(C(=O)OCCCc2cccc3ccccc23)C(CO)NC(=S)N1 (stereo not drawn) [24″, 4-hydroxymethyl-6-methyl-2-thioxo-1,2,3,4-tetrahydro-pyrimidine-5-carboxylic acid 3-naphthalen-1-yl-propyl ester] | 800 nM | < 1000 nM | 
8 | CC(=O)OCC1NC(=S)NC(C)=C1C(=O)OCCCCc1ccsc1 (stereo not drawn) [26″, 4-acetoxymethyl-6-methyl-2-thioxo-1,2,3,4-tetrahydro-pyrimidine-5-carboxylic acid 4-thiophen-3-yl-butyl ester] | 2000 nM | 1000 to 10000 nM | 
9 | CCCCCCOC(=O)C1=C(C)NC(=S)NC1 [Compound 30, 6-methyl-2-thioxo-1,2,3,4-tetrahydro-pyrimidine-5-carboxylic acid hexyl ester] | 100 nM | < 1000 nM | 
10 | CC1=C(C(=O)OCC2(c3ccc(Cl)cc3)CC2)C(CO)NC(=S)N1 (stereo not drawn) [52″, 4-hydroxymethyl-6-methyl-2-thioxo-1,2,3,4-tetrahydro-pyrimidine-5-carboxylic acid 1-(4-chloro-phenyl)-cyclopropylmethyl ester] | 10000 nM | 1000 to 10000 nM | 
11 | CC1=C(C(=O)OCCc2ccc(F)cc2Cl)C(CO)NC(=S)N1 (stereo not drawn) [58″, 4-hydroxymethyl-6-methyl-2-thioxo-1,2,3,4-tetrahydro-pyrimidine-5-carboxylic acid 2-(2-chloro-4-fluoro-phenyl)-ethyl ester] | 1800 nM | 1000 to 10000 nM | 
12 | COCCN(C)c1ccc(CCCOC(=O)C2=C(C)NC(=S)NC2CF)cc1 (stereo not drawn) [59′, 4-fluoromethyl-6-methyl-2-thioxo-1,2,3,4-tetrahydro-pyrimidine-5-carboxylic acid 3-{4-[(2-methoxy-ethyl)-methyl-amino]-phenyl}-propyl ester] | 34000 nM | > 20000 nM | 
13 | CC1=C(C(=O)OCc2ccc(C)c([N+](=O)[O-])c2)CNC(=S)N1 [Compound 136, 6-methyl-2-thioxo-1,2,3,4-tetrahydro-pyrimidine-5-carboxylic acid 3-nitro-4-methyl-benzyl ester] | 600 nM | < 1000 nM | 
14 | CC1=C(C(=O)OCCc2cccc([N+](=O)[O-])c2)C(COC(=O)OCC2COC(C)(C)O2)NC(=S)N1 (stereo not drawn) [77″, 4-(2,2-dimethyl-[1,3]dioxolan-4-ylmethoxycarbonyloxymethyl)-6-methyl-2-thioxo-1,2,3,4-tetrahydro-pyrimidine-5-carboxylic acid 2-(3-nitro-phenyl)-ethyl ester] | 5600 nM | 1000 to 10000 nM | 
15 | CC1=C(C(=O)OCCCc2ccsc2)C(C(C)O)NC(=S)N1 (stereo not drawn) [15″, 4-(1-hydroxy-ethyl)-6-methyl-2-thioxo-1,2,3,4-tetrahydro-pyrimidine-5-carboxylic acid 3-thiophen-3-yl-propyl ester] | 55000 nM | > 20000 nM | 
16 | CC1=C(C(=O)OCCOCCc2ccsc2)CNC(=S)N1 [54′, 6-methyl-2-thioxo-1,2,3,4-tetrahydro-pyrimidine-5-carboxylic acid 2-(2-thiophen-3-yl-ethoxy)-ethyl ester] | 5000 nM | 1000 to 10000 nM | 
17 | CC1=C(C(=O)OCc2cc(C)cc(C)c2)C(CF)NC(=S)N1 (stereo not drawn) [35′, 4-fluoromethyl-6-methyl-2-thioxo-1,2,3,4-tetrahydro-pyrimidine-5-carboxylic acid 3,5-dimethyl-benzyl ester] | 800 nM | < 1000 nM | 

Row | Compound | IC50 [1] | IC50 [2] | IC50 [3]
18 | COc1cccc(COC(=O)C2=C(C)NC(=S)NC2)c1 [Compound 120, 6-methyl-2-thioxo-1,2,3,4-tetrahydro-pyrimidine-5-carboxylic acid 3-methoxy-benzyl ester] | 1000 nM | 1000 to 10000 nM | 
19 | CC1=C(C(=O)OC2Cc3ccccc3C2)CNC(=S)N1 [Compound 124, 6-methyl-2-thioxo-1,2,3,4-tetrahydro-pyrimidine-5-carboxylic acid indan-2-yl ester] | 800 nM | < 1000 nM | 
20 | CC1=C(C(=O)OCc2ccccc2[N+](=O)[O-])CNC(=S)N1 [Compound 183, 6-methyl-2-thioxo-1,2,3,4-tetrahydro-pyrimidine-5-carboxylic acid 2-nitro-benzyl ester] | 2500 nM | 1000 to 10000 nM | 
21 | CCOCC#CCOC(=O)C1=C(C)NC(=S)NC1 [Compound 236, 6-methyl-2-thioxo-1,2,3,4-tetrahydro-pyrimidine-5-carboxylic acid 4-ethoxy-but-2-inyl ester] |  |  | 14000 nM
22 | COc1ccc(COC(=O)C2=C(C)NC(=S)NC2)c(F)c1 [Compound 177, 6-methyl-2-thioxo-1,2,3,4-tetrahydro-pyrimidine-5-carboxylic acid 2-fluoro-4-methoxy-benzyl ester] | 2500 nM | 1000 to 10000 nM | 
23 | CC1=C(C(=O)OCCc2ccc(F)cc2)CNC(=S)N1 [Compound 259, 6-methyl-2-thioxo-1,2,3,4-tetrahydro-pyrimidine-5-carboxylic acid 2-(4-fluoro-phenyl)-ethyl ester] | < 400 nM | < 1000 nM | 
24 | CC1=C(C(=O)OCc2ccc(F)cc2F)CNC(=S)N1 [Compound 69, 6-methyl-2-thioxo-1,2,3,4-tetrahydro-pyrimidine-5-carboxylic acid 2,4-difluoro-benzyl ester] | 1200 nM | 1000 to 10000 nM | 
25 | CCc1ccc(CCOC(=O)C2=C(C)NC(=S)NC2CF)o1 (stereo not drawn) [23′, 4-fluoromethyl-6-methyl-2-thioxo-1,2,3,4-tetrahydro-pyrimidine-5-carboxylic acid 2-(5-ethyl-furan-2-yl)-ethyl ester] | 700 nM | < 1000 nM | 
26 | CC1=C(C(=O)OCCc2ccc(Cl)c(C(F)(F)F)c2)C(CO)NC(=S)N1 (stereo not drawn) [67″, 4-hydroxymethyl-6-methyl-2-thioxo-1,2,3,4-tetrahydro-pyrimidine-5-carboxylic acid 2-(4-chloro-3-trifluoromethyl-phenyl)-ethyl ester] | < 400 nM | < 1000 nM | 
27 | CC1=C(C(=O)OCCCc2ccc(C(F)(F)F)cc2)CNC(=S)N1 [Compound 107, 6-methyl-2-thioxo-1,2,3,4-tetrahydro-pyrimidine-5-carboxylic acid 3-(4-trifluoromethyl-phenyl)-propyl ester] | < 400 nM | < 1000 nM | 
28 | COc1cscc1CCOC(=O)C1=C(C)NC(=S)NC1 [40′, 6-methyl-2-thioxo-1,2,3,4-tetrahydro-pyrimidine-5-carboxylic acid 2-(4-methoxy-thiophen-3-yl)-ethyl ester] | 600 nM | < 1000 nM | 
29 | CC1=C(C(=O)OCc2ccc(-c3ccc([N+](=O)[O-])cc3)o2)CNC(=S)N1 [Compound 128, 6-methyl-2-thioxo-1,2,3,4-tetrahydro-pyrimidine-5-carboxylic acid 5-(4-nitro-phenyl)-furan-2-ylmethyl ester] | 1000 nM | < 1000 nM | 
30 | COc1ccc(COC(=O)C2=C(C)NC(=S)NC2)c(C)c1C [Compound 138, 6-methyl-2-thioxo-1,2,3,4-tetrahydro-pyrimidine-5-carboxylic acid 4-methoxy-2,3-dimethyl-benzyl ester] | 20000 nM | 10000 to 20000 nM | 
31 | CC1=C(C(=O)OCc2c(C)nn(-c3ccccc3)c2C)CNC(=S)N1 [Compound 181, 6-methyl-2-thioxo-1,2,3,4-tetrahydro-pyrimidine-5-carboxylic acid 3,5-dimethyl-1-phenyl-1H-pyrazol-4-ylmethyl ester] | > 100000 nM | > 20000 nM | 
32 | CC1=C(C(=O)OCCc2cccc([N+](=O)[O-])c2)C(COC(=O)c2ccccc2)NC(=S)N1 (stereo not drawn) [89″, 4-benzoyloxymethyl-6-methyl-2-thioxo-1,2,3,4-tetrahydro-pyrimidine-5-carboxylic acid 2-(3-nitro-phenyl)-ethyl ester] | 6800 nM | 1000 to 10000 nM | 
33 | O=C(OCCc1ccsc1)C1=CNC(=S)NC1 [Compound 261, 2-thioxo-1,2,3,4-tetrahydro-pyrimidine-5-carboxylic acid 2-thiophen-3-yl-ethyl ester] | 800 nM | < 1000 nM | 
34 | CCn1c2ccccc2c2cc(COC(=O)C3=C(C)NC(=S)NC3)ccc21 [Compound 147, 6-methyl-2-thioxo-1,2,3,4-tetrahydro-pyrimidine-5-carboxylic acid 9-ethyl-9H-carbazol-3-ylmethyl ester] | < 400 nM | < 1000 nM | 
